In PMC6865014, “Discovery of Novel µ-Opioid Receptor Inverse Agonist from a Combinatorial Library of Tetrapeptides through Structure-Based Virtual Screening” (Molecules, 2019):

What was measured:
[1] = system: Gαi/o protein, rat brain membrane homogenates; experiment: Functional [^35S]GTPγS binding (G-protein activity); format: biochemical, rat (male Wistar); details: 10 µM, basal activity = 100%, 30 °C, 60 min, triplicates, at least three times; for effect on G-protein basal activity / [^35S]GTPγS specific binding (in words): rat brain membranes, pH 7.4
Method: (§1) Rats were decapitated and their brains were quickly removed. The brains were used for membrane preparation according to Benyhe et al. partly used for competition binding experiments and partly were further prepared for the [^35S]GTPγS binding experiments based on Zádor et al.. Briefly, the brains were homogenized, centrifuged in ice-cold 50 mM Tris-HCl (pH 7.4) buffer and incubated at 37 °C for 30 min in a shaking water-bath. After incubation, the centrifugation was repeated as described before and the final pellet was suspended in 50 mM Tris-HCl pH 7.4 buffer containing 0.32 M sucrose and stored at −80 °C. For the [^35S]GTPγS binding experiments the final pellet of rat brain membrane homogenate was suspended in ice-cold TEM (Tris-HCl, EGTA, MgCl2) and stored at −80 °C for further use.
In [^35S]GTPγS binding experiments was measured the GDP→GTP exchange of the Gαi/o protein in the presence of a given ligand to measure ligand potency and the maximal efficacy of receptors G-protein. The nucleotide exchange is monitored by a radioactive, non-hydrolysable GTP analog, [^35S]GTPγS. The functional [^35S]GTPγS binding experiments were performed as previously described, with some modifications. The test compounds in 10 µM were incubated together with rat brain membrane homogenates containing ~10 μg/mL protein at 30 °C for 60 min in Tris-EGTA buffer (pH 7.4) composed of 50 mM Tris-HCl, 1 mM EGTA, 3 mM MgCl2, 100 mM NaCl, containing 20 MBq/0.05 cm^3 [^35S]GTPγS (0.05 nM). […] Total binding was measured in the absence of test compounds, while non-specific binding was determined in the presence of 10 μM unlabeled GTPγS. The bound and unbound [^35S]GTPγS were separated as described in the competition binding assays section through Whatmann GF/B glass fibers. The radioactivity of the filters was also detected as described above. [^35S]GTPγS binding experiments were performed in triplicates and repeated at least three times.
(§2) The specific binding of all radiolabeled compounds was calculated by the subtraction of non-specific binding from total binding and was given in percentage. The data were normalized to total specific binding, which was settled 100%, which in the case of [^35S]GTPγS also represents the basal activity of the G-protein. Experimental data were presented as mean ± S.E.M. Statistical analyses were performed with GraphPad Prism 5.0 applying one-way ANOVA with Tukey’s multiple comparison test. Significance was accepted at the p < 0.05 level.

[2] = system: MOR, rat brain membrane homogenates; experiment: MOR specificity of the peptide 1 effect: [^35S]GTPγS binding with co-incubated DAMGO or cyprodime; format: biochemical, rat (male Wistar); details: rat brain membranes
Method: as §1, with “For the [^35S]GTPγS binding experiments the final pellet of rat brain membrane homogenate was suspended in ice-cold TEM (Tris-HCl, EGTA, MgCl2) and stored at −80 °C for further use.” left out
In [^35S]GTPγS binding experiments was measured the GDP→GTP exchange of the Gαi/o protein in the presence of a given ligand to measure ligand potency and the maximal efficacy of receptors G-protein. The nucleotide exchange is monitored by a radioactive, non-hydrolysable GTP analog, [^35S]GTPγS. […] Total binding was measured in the absence of test compounds, while non-specific binding was determined in the presence of 10 μM unlabeled GTPγS. […] The radioactivity of the filters was also detected as described above. […]
(§3) The specific binding of all radiolabeled compounds was calculated by the subtraction of non-specific binding from total binding and was given in percentage. […]

[3] = system: MOR (µ-opioid receptor), rat brain membranes; experiment: Radioligand competition binding, [^3H]DAMGO; parameters: species or system rat (male Wistar); details: for activity against MOR (in words): stated when comparing binding modes, up to 10 µM
Method: as §1
Total and non-specific binding was determined in the absence of ligands and the presence of 10 µM unlabeled naloxone, respectively. Following incubation, the bound and unbound radioligands were separated by rapid vacuum filtration through Whatman GF/C glass fibers and washed three times with 5 mL ice-cold 50 mM Tris-HCl (pH: 7.4). The radioactivity of the filters was detected in UltimaGold^TM MV aqueous scintillation cocktail with Packard Tricarb 2300TR liquid scintillation counter. The competition binding assays were performed in duplicate and repeated at least three times.
as §2

[4] = system: DOR (δ-opioid receptor), rat brain membranes; experiment: Radioligand competition binding, [^3H]IleDelt II; parameters: species or system rat (male Wistar); details: 3 and 10 µM
Method: as §1
Total and non-specific binding was determined in the absence of ligands and the presence of 10 µM unlabeled naloxone, respectively. […] The radioactivity of the filters was detected in UltimaGold^TM MV aqueous scintillation cocktail with Packard Tricarb 2300TR liquid scintillation counter. […]
as §3

[5] = biological target: δ-opioid receptor (rat (endogenous in Wistar rat brain)) (UniProt P33533); experiment: radioligand binding; competition against ~1 nM [^3H]IleDelt II on rat brain membranes (0.3-0.5 mg/mL protein), test ligands at 3 and 10 µM, 35 °C, 45 min; non-specific binding with 10 µM naloxone; filtration, 50 mM Tris-HCl pH 7.4 wash
[6] = system: δ-opioid receptors; details: ref [11]; cited from earlier work
Text: These are potent μ-opioid agonists that exert addiction liability and numerous side effects, such as euphoria, addiction, respiratory depression, and gastrointestinal adverse reactions; therefore; circumventing these drawbacks is of extensive importance. A large amount of literature documented novel approaches to disconnecting the analgesic efficacy of μ-opioid agonists from morphine-like side effects, for example biasing the GPCRs over β-arrestin2 recruitment (TRV130, PZM21, HS665) or designing positive allosteric modulators of the MOR (BMS-986122), MOR inverse agonists/KOR antagonists, ...

[7] = biological target: µ-opioid receptor (rat (endogenous in Wistar rat brain)) (UniProt P33535)

H-Tyr-Lys-Arg-Cys-OH [peptide 1, TFA.H-Tyr-Lys-Arg-Cys-OH]
reduction of G-protein basal activity ([^35S]GTPγS specific binding) ([1]; rat brain membranes ~10 μg/mL, pH 7.4, 0.05 nM [^35S]GTPγS): ~ 20% | effect on G-protein basal activity / [^35S]GTPγS specific binding (in words) [1]: appreciable inverse agonist effect | MOR functional activity (in words) ([2]; 10 µM): appreciable inverse agonist effect at MOR | inverse agonist effect in presence of DAMGO ([2]; peptide 1 10 µM + DAMGO 10 µM): the inverse agonist effect was reversed back to basal activity level | inhibition of [^3H]DAMGO specific binding (in words) ([3]; 3 and 10 µM, rat brain membranes): displayed inhibition of [^3H]DAMGO specific binding | selectivity MOR over DOR (in words) ([3]; [^3H]DAMGO vs [^3H]IleDelt II binding, rat brain membranes): selectivity for MOR over DOR | inhibition of [^3H]IleDelt II specific binding (in words) [4]: not against [^3H]IleDelt II

H-Tyr-Trp-Trp-Trp-OH [peptide 2, TFA.H-Tyr-Trp-Trp-Trp-OH]
effect on G-protein basal activity / [^35S]GTPγS specific binding (in words) [1]: did not alter significantly the basal activity | activity against MOR (in words) [3]: inactive against MOR

H-Tyr-Trp-Tyr-Trp-OH [peptide 3, TFA.H-Tyr-Trp-Tyr-Trp-OH]
effect on G-protein basal activity / [^35S]GTPγS specific binding (in words) [1]: did not alter significantly the basal activity | activity against MOR (in words) [3]: inactive against MOR

Ile^5,6-deltorphin II (peptide)
specific binding of the radiolabeled homolog left (percent of total) [5]: 0%

Tyr-D-Ala-Gly-(NMe)Phe-Gly-ol [DAMGO, reference compound]
effect on G-protein basal activity / [^35S]GTPγS specific binding (in words) [1]: significantly increased the specific binding of the [^35S]GTPγS compared to the basal level | specific binding of [^3H]DAMGO in presence of unlabeled homologue ([3]; control, unlabeled DAMGO 3 and 10 µM, rat brain membranes, 35 °C, 45 min, 0% = non-specific binding level): 0%

rubiscolin-6
G protein signaling at δ-opioid receptors (in words) [6]: activate G protein signaling pathways at the δ-opioid receptors | β-arrestin recruitment (in words) [6]: minimal β-arrestin recruitment

B1: peptide 1 (Tyr-Lys-Arg-Cys) (peptide)
peptide: YKRC
[^35S]GTPγS specific binding (G-protein basal activity) in rat brain membranes, 10 µM peptide 1 [7]: 20%
